Experimental data taken from patent publication US20260200964A1, “MONOSACCARIDES, PHARMACEUTICAL COMPOSITIONS, AND DIAGNOSTIC AND THERAPEUTIC APPLICATIONS” (Surio Therapeutics Co., LTD., priority 2022, published 2026).

Key:
[1] = Compound stability in a biological matrix (mouse plasma); type: in vitro ADME; details: 10 μg/mL, 37° C., LC-MS/MS
Description: (§1) A compound was dissolved in DMSO as a 1 mg/mL stock solution. An ACN solution of the compound at 100 μg/mL was prepared from the stock solution, 10 μL of which was added to a biological matrix (90 μL) to the final concentration of 10 μg/mL for the compound. The mixtures of the compound in a biological matrix were incubated at 37° C. for 0, 0.5, 1, or 4 h. At each time point, ACN (900 μL) was added to a mixture. After the mixture was centrifuged at 15,000 rpm for 5 min, the supernatant was mixed with the same volume of H2O (1% TFA) and then analyzed by LC-MS/MS. The results are summarized in Table 3, wherein Cbz-AAM is (2R,3S,4R,5S)-6-((4-((S)-6-acetamido-2-(((benzyloxy)carbonyl)amino)hexan-amido)phenyl)(phenyl)methoxy)-2-(acetoxymethyl)-5-(2-azidoacetamido)tetrahydro-2H-pyran-3,4-diyl diacetate.

[2] = Compound stability in a biological matrix (human plasma); type: in vitro ADME; details: 10 μg/mL, 37° C., LC-MS/MS
Description: as §1

A549 cells = assay: Flow cytometry analysis of cell labeling (azido labeling efficiency); type: cell-based; details: Homo sapiens; A549 cells (lung); azido compound 25 μM, 48 h; mean fluorescence of live cells compared with PBS negative control
Description: Cells (2.0×10^6 cells/mL, 2 mL) were seeded in a 6-well culture plate and attached at 37° C. overnight. After washed thrice with PBS, the cells were incubated with an azido compound (25 μM) at 37° C. for 48 h. After washed thrice with PBS, the cells were incubated with DBCO-biotin (50 μM) in 500 μL serum free DMEM at 37° C. for 1 h. The cells were washed thrice with PBS and then incubated with streptavidin-Cy5 (5 μg/mL) in 500 μL serum free DMEM at 37° C. for 1 h. The cells were washed thrice with PBS, followed by addition of 300 μL 1×trypsin/EDTA for digestion. The lifted cells were transferred to a 1.5 mL EP tube, centrifuge at 1,000 rpm for 3 min, and washed with PBS once. Finally, 500 μL PBS containing 4% PFA was added to the cell pellet to fix the cells. The cell suspension was transferred to a flow tube and mixed with 10 μL of a PI working solution (50 μg/mL) at room temperature for 30 min before being subjected to flow cytometry.
Flow cytometry was used to characterize the labeling efficiency of a compound provided herein. After cells were labeled with an azido group, DBCO-biotin was added to specifically react with the azido group. Avidin-Cy5 was added bind to the cell surface biotin for a flow cytometry analysis. Dead cells were stained with PI and excluded from the analysis. Results were presented as the mean fluorescence of live cells, compared with PBS as a negative control and Ac4ManNAz (AAM) as a positive control, Ac4ManNAz (AAM, CAS: 361154-30-5).

Structure (SMILES)	Compound Remaining (%) Mouse 1 h [1] [%]	Compound Remaining (%) Mouse 4 h [1] [%]	Compound Remaining (%) Human 1 h [2] [%]	Compound Remaining (%) Human 4 h [2] [%]	activity at 25 µM (A549 cells) [%]
CC(=O)NCCCC[C@H](NC(C)=O)C(=O)Nc1ccc(C(OC2OC(COC(C)=O)C(OC(C)=O)C(OC(C)=O)C2NC(=O)CN=[N+]=[N-])c2nccs2)cc1 (stereo partly drawn) [Compound A15, 1-O-(1-(Thiazol-2-yl)-1-(4-(2(S),6-diacetamidohexanamido)phenyl)methyl)-2-(2-azidoacetylamino)-2-deoxy-3,4,6-tri-O-acetyl-D-mannopyranoside]	2	<2	2	<2	318
CC(=O)NCCCC[C@H](NC(=O)OCc1ccccc1)C(=O)Nc1ccc(C(OC2OC(COC(=O)C3CCN(C)CC3)C(OC(C)=O)C(OC(C)=O)C2NC(=O)CN=[N+]=[N-])c2ccnn2C)cc1 (stereo partly drawn) [Compound A10, 1-O-(1-(2-Methylpyrazol-3-yl)-1-(4-(6-acetamido-2(S)-(benzyloxycarbonyl-amino)hexanamido)phenyl)methyl)-2-(2-azidoacetylamino)-2-deoxy-3,4-di-O-acetyl-6-O-(1-methylpiperidin-4-yl)carbonyl-D-mannopyranoside]	81	21	62	5	166
CC(=O)NCCCC[C@H](NC(C)=O)C(=O)Nc1ccc(C(OC2OC(COC(C)=O)C(OC(C)=O)C(OC(C)=O)C2NC(=O)CN=[N+]=[N-])c2ccnn2C)cc1 (stereo partly drawn) [Compound A14, 1-O-(1-(2-Methylpyrazol-3-yl)-1-(4-(2(S),6-diacetamidohexanamido)phenyl)-methyl)-2-(2-azidoacetylamino)-2-deoxy-3,4,6-tri-O-acetyl-D-mannopyranoside]	89	40	63	19	620
CC(=O)NCCCC[C@H](NC(C)=O)C(=O)Nc1ccc(C(OC2OC(COC(=O)Cc3cccnc3)C(OC(C)=O)C(OC(C)=O)C2NC(=O)CN=[N+]=[N-])c2ccnn2C)cc1 (stereo partly drawn) [Compound A17, 1-O-(1-(2-Methylpyrazol-3-yl)-1-(4-(2(S),6-diacetamidohexanamido)phenyl)-methyl)-2-(2-azidoacetylamino)-2-deoxy-3,4-di-O-acetyl-6-O-(pyridin-3-ylacetyl)-D-mannopyranoside]	77	28	63	10	161
CC(=O)NCCCC[C@H](NC(C)=O)C(=O)Nc1ccc(C(OC2OC(COC(=O)C3CCN(C)CC3)C(OC(C)=O)C(OC(C)=O)C2NC(=O)CN=[N+]=[N-])c2ccnn2C)cc1 (stereo partly drawn) [Compound A18, 1-O-(1-(2-Methylpyrazol-3-yl)-1-(4-(2(S),6-diacetamidohexanamido)phenyl)-methyl)-2-(2-azidoacetylamino)-2-deoxy-3,4-di-O-acetyl-6-O-(1-methylpiperidin-4-ylcarbonyl)-D-mannopyranoside]	100	93	95	85	104

More lines, main results first:

Compound Remaining (%) Mouse 1 h [1] [%]	Compound Remaining (%) Mouse 4 h [1] [%]	Compound Remaining (%) Human 1 h [2] [%]	Compound Remaining (%) Human 4 h [2] [%]	Structure (SMILES)	activity at 25 µM (A549 cells) [%]
2	2	2	1	CC(=O)NCCCC[C@H](NC(=O)OCc1ccccc1)C(=O)Nc1ccc(C(OC2OC(COC(C)=O)C(OC(C)=O)C(OC(C)=O)C2NC(=O)CN=[N+]=[N-])c2ccsc2)cc1 (stereo partly drawn) [Compound A5, 1-O-(1-(Thien-3-yl)-1-(4-(6-acetamido-2(S)-(benzyloxycarbonylamino)hexan-amido)phenyl)methyl)-2-(2-azidoacetylamino)-2-deoxy-3,4,6-tri-O-acetyl-D-mannopyranoside]	130
3	3	2	1	CC(=O)NCCCC[C@H](NC(=O)OCc1ccccc1)C(=O)Nc1ccc(C(OC2OC(COC(C)=O)C(OC(C)=O)C(OC(C)=O)C2NC(=O)CN=[N+]=[N-])c2cccs2)cc1 (stereo partly drawn) [Compound A4, 1-O-(1-(thien-2-yl)-1-(4-(6-acetamido-2(S)-(benzyloxycarbonylamino)-hexanamido)phenyl)methyl)-2-(2-azidoacetylamino)-2-deoxy-3,4,6-tri-O-acetyl-D-mannopyranoside]	83
91	72	94	70	CC(=O)NCCCC[C@H](NC(=O)OCc1ccccc1)C(=O)Nc1ccc(C(OC2OC(COC(C)=O)C(OC(C)=O)C(OC(C)=O)C2NC(=O)CN=[N+]=[N-])c2cnc[nH]2)cc1 (stereo partly drawn) [Compound A1, 1-O-(1-(imidazol-4-yl)-1-(4-(6-acetamido-2(S)-(benzyloxycarbonylamino)-hexanamido)phenyl)methyl)-2-(2-azidoacetylamino)-2-deoxy-3,4,6-tri-O-acetyl-D-mannopyranoside]	103
76	22	50	12	CC(=O)NCCCC[C@H](NC(=O)OCc1ccccc1)C(=O)Nc1ccc(C(OC2OC(COC(=O)c3cccnc3)C(OC(C)=O)C(OC(C)=O)C2NC(=O)CN=[N+]=[N-])c2ccnn2C)cc1 (stereo partly drawn) [Compound A13, 1-O-(1-(2-Methylpyrazol-3-yl)-1-(4-(6-acetamido-2(S)-(benzyloxycarbonyl-amino)hexanamido)phenyl)methyl)-2-(2-azidoacetylamino)-2-deoxy-3,4-di-O-acetyl-6-O-(pyridin-3-ylcarbonyl)-D-mannopyranoside]	180
82	27	64	8	CC(=O)NCCCC[C@H](NC(=O)OCc1ccccc1)C(=O)Nc1ccc(C(OC2OC(COC(=O)Cc3cccnc3)C(OC(C)=O)C(OC(C)=O)C2NC(=O)CN=[N+]=[N-])c2ccnn2C)cc1 (stereo partly drawn) [Compound A12, 1-O-(1-(2-Methylpyrazol-3-yl)-1-(4-(6-acetamido-2(S)-(benzyloxycarbonyl-amino)hexanamido)phenyl)methyl)-2-(2-azidoacetylamino)-2-deoxy-3,4-di-O-acetyl-6-O-(pyridin-3-ylacetyl)-D-mannopyranoside]	165
84	27	63	16	CC(=O)NCCCC[C@H](NC(=O)OCc1ccccc1)C(=O)Nc1ccc(C(OC2OC(COC(=O)C3CCOCC3)C(OC(C)=O)C(OC(C)=O)C2NC(=O)CN=[N+]=[N-])c2ccnn2C)cc1 (stereo partly drawn) [Compound A9, 1-O-(1-(2-methylpyrazol-3-yl)-1-(4-(6-acetamido-2(S)-(benzyloxycarbonyl-amino)hexanamido)phenyl)methyl)-2-(2-azidoacetylamino)-2-deoxy-3,4-di-O-acetyl-6-O-tetrahydropyran-4-ylcarbonyl-D-mannopyranoside]	197
